# In the supplement of paper PMC10307832:
# How the values were obtained:
# Assay in all cases: relative viability (nuclei count vs DMSO), 5 days (fraction); higher = more cells survive
# DM3189 + Palbociclib = compound: C1CN(CCN1)C2=CC=C(C=C2)C3=CN4C(=C(C=N4)C5=CC=NC6=CC=CC=C56)N=C3 [DM3189] + CC(=O)c1c(C)c2cnc(Nc3ccc(N4CCNCC4)cn3)nc2n(C2CCCC2)c1=O [Palbociclib] (partner 0.5 µM)
# Summary of the method: (§1)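 Lung cancer cell lines, seeded in 1536-well plates, were treated the following day by pin tool with a single drug or with five library-drug doses (not always all listed) in √10 steps on top of a fixed anchor-drug dose. Cells were fixed and nuclei stained in one step after 5 days, and nuclei were counted. Relative viability is the nuclei count for treated wells divided by that for vehicle wells, reported as medians of duplicate plates.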
# DM3189 + Bortezomib = compound: C1CN(CCN1)C2=CC=C(C=C2)C3=CN4C(=C(C=N4)C5=CC=NC6=CC=CC=C56)N=C3 [DM3189] + CC(C)C[C@H](NC(=O)[C@H](Cc1ccccc1)NC(=O)c1cnccn1)B(O)O [Bortezomib] (partner 0.002 µM)
# Summary of the method: as §1
# DM3189 + Lapatinib = compound: C1CN(CCN1)C2=CC=C(C=C2)C3=CN4C(=C(C=N4)C5=CC=NC6=CC=CC=C56)N=C3 [DM3189] + CS(=O)(=O)CCNCc1ccc(-c2ccc3ncnc(Nc4ccc(OCc5cccc(F)c5)c(Cl)c4)c3c2)o1 [Lapatinib] (partner 2 µM)
# Summary of the method: as §1
# DM3189 + Pictilisib = compound: C1CN(CCN1)C2=CC=C(C=C2)C3=CN4C(=C(C=N4)C5=CC=NC6=CC=CC=C56)N=C3 [DM3189] + CS(=O)(=O)N1CCN(Cc2cc3nc(-c4cccc5[nH]ncc45)nc(N4CCOCC4)c3s2)CC1 [Pictilisib] (partner 1 µM)
# Summary of the method: as §1
# DM3189 + Pemetrexed = compound: C1CN(CCN1)C2=CC=C(C=C2)C3=CN4C(=C(C=N4)C5=CC=NC6=CC=CC=C56)N=C3 [DM3189] + Nc1nc2[nH]cc(CCc3ccc(C(=O)N[C@@H](CCC(=O)O)C(=O)O)cc3)c2c(=O)[nH]1 [Pemetrexed] (partner 0.2 µM)
# Summary of the method: as §1
Cell Line,relative viability (DM3189 + Palbociclib; first compound 0.08 µM),relative viability (DM3189 + Palbociclib; first compound 0.253 µM),relative viability (DM3189 + Palbociclib; first compound 0.8 µM),relative viability (DM3189 + Palbociclib; first compound 2.53 µM),relative viability (DM3189 + Bortezomib; first compound 0.08 µM),relative viability (DM3189 + Bortezomib; first compound 0.253 µM),relative viability (DM3189 + Bortezomib; first compound 0.8 µM),relative viability (DM3189 + Bortezomib; first compound 2.53 µM),relative viability (DM3189 + Lapatinib; first compound 0.08 µM),relative viability (DM3189 + Lapatinib; first compound 0.253 µM),relative viability (DM3189 + Lapatinib; first compound 2.53 µM),relative viability (DM3189 + Pictilisib; first compound 0.08 µM),relative viability (DM3189 + Pictilisib; first compound 0.253 µM),relative viability (DM3189 + Pictilisib; first compound 2.53 µM),relative viability (DM3189 + Pemetrexed; first compound 0.08 µM),relative viability (DM3189 + Pemetrexed; first compound 0.253 µM),relative viability (DM3189 + Pemetrexed; first compound 0.8 µM),relative viability (DM3189 + Pemetrexed; first compound 2.53 µM),relative viability (DM3189 + Lapatinib; first compound 0.8 µM),relative viability (DM3189 + Pictilisib; first compound 0.8 µM)
HCC-78,0.479,0.395,0.423,0.586,0.486,0.571,0.403,0.571,0.981,0.656,0.825,0.206,0.188,0.224,0.918,0.918,0.848,0.927,–,–
HCC-366,0.408,0.286,0.244,0.341,1.12,0.99,0.931,1.06,0.839,0.93,0.931,0.209,0.134,0.137,0.139,0.166,0.116,0.149,0.681,0.116
HCC-827,0.539,0.437,0.452,0.428,1.12,0.958,0.985,1.06,0.179,0.161,0.192,1.19,1.06,1.15,0.279,0.244,0.249,0.275,0.16,1.02
HOP-62,0.53,0.453,0.46,0.402,1.18,0.927,0.393,0.58,1.23,0.968,0.977,0.86,0.562,0.836,0.32,0.296,0.295,0.346,1.01,0.572
LC-2-ad,0.561,0.507,0.487,0.49,0.975,0.934,0.943,1.06,0.946,0.787,0.836,0.588,0.563,0.473,0.259,0.253,0.257,0.276,0.823,0.397
LCLC-97TM1,0.196,0.154,0.177,0.178,1.26,0.573,0.531,0.366,0.744,0.488,0.755,0.186,0.151,0.13,0.182,0.17,0.136,0.167,0.416,0.159
LCLC-103H,0.536,0.434,0.45,0.455,1.14,0.939,0.955,1.07,–,–,–,0.737,0.618,0.622,0.514,0.407,0.431,0.469,–,0.558
LK-2,0.51,0.393,0.387,0.243,–,–,–,–,0.613,0.625,0.43,0.378,0.278,0.306,0.283,0.198,0.197,0.183,0.458,0.262
NCI-H358,0.278,0.13,0.126,0.127,–,–,–,–,0.489,0.359,0.424,0.374,0.294,0.322,0.172,0.155,0.181,0.168,0.523,0.327
NCI-H441,0.25,0.222,0.197,0.169,0.656,0.604,0.447,0.645,–,–,–,0.51,0.563,0.409,0.3,0.243,0.295,0.287,–,0.42
NCI-H522,1.27,0.808,1.1,0.998,–,–,–,–,–,–,–,–,–,–,0.992,0.898,0.767,0.873,–,–
NCI-H596,–,–,–,–,1.34,0.969,1.03,1.28,1.19,1.06,0.99,0.419,0.247,0.407,0.49,0.442,0.512,0.477,0.799,0.412
NCI-H727,0.581,0.581,0.579,0.608,1.07,0.854,–,0.716,0.829,0.626,0.781,0.593,0.347,0.227,–,–,–,–,–,–
NCI-H1395,0.528,0.593,–,0.605,–,–,–,–,1.1,0.92,0.896,0.625,0.618,0.562,1.13,0.786,–,0.806,0.724,0.459
NCI-H1703,–,–,–,–,0.365,0.292,0.326,0.298,1.2,1.15,1.14,0.28,0.205,0.257,–,–,–,–,1.17,0.257
NCI-H1793,0.414,0.432,0.448,0.451,–,–,–,–,0.653,0.773,0.711,0.311,0.306,0.31,1.03,1.18,1.1,1.47,1.01,0.281
NCI-H1944,0.351,0.327,0.288,0.301,–,–,–,–,0.884,0.765,0.803,0.405,0.336,0.389,0.661,0.603,0.603,0.675,–,–
NCI-H2170,0.484,0.363,0.368,0.347,–,–,–,–,0.277,0.256,0.268,0.308,0.301,0.291,0.282,0.276,0.373,0.248,0.256,0.288
NCI-H2342,0.509,0.489,0.532,0.512,–,–,–,–,–,–,–,–,–,–,0.954,0.745,0.802,0.847,–,–
SK-MES-1,0.236,0.26,0.343,0.305,–,–,–,–,0.458,0.416,0.402,0.305,0.3,0.319,1.12,0.962,0.822,0.849,0.456,0.289
